Earlier results on six compounds are cited in US20070112050A1, “HMGCoA reductase inhibitor combinations and uses thereof” (pSivida Inc., priority 2005, published 2007).

The structures appear in SMILES notation. Read-outs that look alike come from different tables or passages of the source.

For one data set, the target named is T1, HMGCoA reductase (HMGR) (Homo sapiens, UniProt P04035).
T1 sequence (P04035 1-888): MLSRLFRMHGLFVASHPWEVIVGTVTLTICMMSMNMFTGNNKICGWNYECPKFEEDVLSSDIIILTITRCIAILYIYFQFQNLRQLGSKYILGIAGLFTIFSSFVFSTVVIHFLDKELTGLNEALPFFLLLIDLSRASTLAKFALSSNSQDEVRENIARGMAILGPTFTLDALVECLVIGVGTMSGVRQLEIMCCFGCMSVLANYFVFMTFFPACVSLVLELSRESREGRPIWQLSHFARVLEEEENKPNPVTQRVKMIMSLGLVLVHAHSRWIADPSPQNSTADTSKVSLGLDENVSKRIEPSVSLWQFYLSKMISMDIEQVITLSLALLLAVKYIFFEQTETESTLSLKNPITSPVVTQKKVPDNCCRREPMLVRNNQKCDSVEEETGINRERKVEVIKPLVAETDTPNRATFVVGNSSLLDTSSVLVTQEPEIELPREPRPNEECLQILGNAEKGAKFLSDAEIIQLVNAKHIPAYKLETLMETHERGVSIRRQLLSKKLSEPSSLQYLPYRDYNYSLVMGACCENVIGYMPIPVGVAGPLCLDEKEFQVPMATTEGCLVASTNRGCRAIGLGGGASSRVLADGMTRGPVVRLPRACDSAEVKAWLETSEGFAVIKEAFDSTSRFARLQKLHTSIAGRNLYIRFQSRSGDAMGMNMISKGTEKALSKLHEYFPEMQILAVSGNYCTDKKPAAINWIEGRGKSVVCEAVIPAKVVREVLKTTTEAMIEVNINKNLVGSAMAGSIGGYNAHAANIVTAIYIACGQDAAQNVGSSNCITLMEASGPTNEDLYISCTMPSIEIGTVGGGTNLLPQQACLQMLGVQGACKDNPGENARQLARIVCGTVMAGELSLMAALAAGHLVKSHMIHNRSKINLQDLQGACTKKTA
As to conditions: substrate of HMGCoA reductase; read-out: Michaelis constant, Km.

The subject of data set [1] is low density lipoprotein cholesterol (LDL). The conditions noted are these: ezetimibe administered alone.

On to `CCOc1nc2cccc(C(=O)O)c2n1Cc1ccc(-c2ccccc2-c2nnn[nH]2)cc1` [Candesartan, candesartan], for which the Half-life (human, in vivo) was 10 h. Moreover, under “in vivo”, the Active metabolite result is given as “Yes”; the “Major route of inactivation” value was “Liver and renal”. As to `CC(C)(COP(=O)(O)OP(=O)(O)OC[C@H]1O[C@@H](n2cnc3c(N)ncnc32)[C@H](O)[C@@H]1OP(=O)(O)O)[C@@H](O)C(=O)NCCC(=O)NCCSC(=O)C[C@@](C)(O)CC(=O)O` [HMGCoA, (S)-3-hydroxy-3-methylglutaryl-CoA], the Michaelis-Menten constant (Km) (in general, the substrate concentration at which the rate is half of its maximum) at HMGCoA reductase (HMGR) was 4 µM. As for `CCCCC1=NC2(CCCC2)C(=O)N1Cc1ccc(-c2ccccc2-c2nnn[nH]2)cc1` [Irbesartan, irbesartan], under “human body”, the Active metabolite result is “No” and the Half-life was 13 h. Take `CCCCc1nc(Cl)c(CO)n1Cc1ccc(-c2ccccc2-c2nn[nH]n2)cc1` [Losartan, losartan]: for the setting “human body”, the Half-life was 5 h. As to `CCCCC(=O)N(Cc1ccc(-c2ccccc2-c2nnn[nH]2)cc1)[C@H](C(=O)O)C(C)C` [Valsartan, valsartan], under “human body”, the Half-life is 6 h. Take `O=C1[C@H](CC[C@H](O)c2ccc(F)cc2)[C@@H](c2ccc(O)cc2)N1c1ccc(F)cc1` [ezetimibe]: in data set [1], the “reduction of LDL” value is reported as 17%.
